Source: patent US20240262806A1, “INHIBITORS OF NLRP3” (PTC THERAPEUTICS, INC., priority 2021, published 2024)

System: NLRP3 inflammasome
Assay: IL-1β Secretion Assay (NLRP3-dependent IL-1β secretion in PMA-differentiated THP-1 cells, nigericin activation, HTRF)
Type: cell-based
Settings: Homo sapiens, THP-1, THP-1 cells, 100 ng/mL PMA 24 h, compound 20 h, 2.5 μM Nigericin 3 h; read-out: IC50 IL-1β Inhibition
Summary of the method: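 PMA-differentiated THP-1 cells in RPMI with 5% FBS were treated with compounds at 7 concentrations in threefold DMSO dilutions. NLRP3 was activated with nigericin and secreted IL-1β measured by HTRF. IC50 from a logistic fit of percent inhibition versus concentration.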

SMILES | IC50 [nM]
CCN1C[C@H](F)C[C@@H](Nc2nnc(-c3c(O)cc(Cl)cc3F)c3cccn23)C1 [Compound I-620] | 1 to 10
OCCN1CCC[C@@H](Nc2nnc(-c3ccc(Br)cc3O)c3cncn23)C1 [Compound I-623] | < 1
Oc1cc(C(F)(F)F)ccc1-c1nnc(N[C@@H]2CCCOC2)n2cncc12 [Compound I-397] | 10 to 100
CCN1CCC[C@@H](Nc2nnc(-c3ccc(Br)cc3O)c3ccnn23)C1 [Compound I-453] | < 1
CCN1CCC[C@@H](Nc2nnc(-c3ccc(C4CC4)cc3O)c3c(F)ccn23)C1 [Compound I-600] | < 1
Oc1cc(C(F)(F)F)ccc1-c1nnc(N[C@@H]2CCCNC2)c2c1CCCC2 [Compound I-11, (R)-2-(4-(Piperidin-3-ylamino)-5,6,7,8-tetrahydrophthalazin-1-yl)-5-(trifluoromethyl)phenol] | 10 to 100
CN1CCC[C@@H](Nc2nnc(-c3ccc(C(F)(F)F)cc3OC(F)F)c3cncn23)C1 [Compound I-624] | 1 to 10
CN1CCCC[C@@H](Nc2nnc(-c3ccc(C(F)(F)F)cc3O)c3ccncc23)C1 [Compound I-187] | < 1
CC1(C)CCc2c(N[C@@H]3CCCNC3)nnc(-c3ccc(C(F)(F)F)cc3O)c21 [Compound I-45] | 1 to 10
Oc1cc(C(F)(F)F)ccc1-c1nnc(N[C@H]2CNC[C@H](O)C2)c2ccccc12 [Compound I-83] | 10 to 100
COc1cc(O)c(-c2nnc(N[C@@H]3CCCN(C)C3)n3nc(C)cc23)c(F)c1 [Compound I-551] | < 1
CN1CCC[C@@H](Nc2nnc(-c3ccc(C(F)(F)F)cc3Cl)c3ccncc23)C1 [Compound I-143, (R)-1-(2-Chloro-4-(trifluoromethyl)phenyl)-N-(1-methylpiperidin-3-yl)pyrido[3,4-d]pyridazin-4-amine] | 1 to 10
Oc1cc(C(F)(F)F)ccc1-c1nnc(N[C@@H]2CCCN(CC(F)F)C2)n2cccc12 [Compound I-412] | < 1
CC1CCCc2c(N[C@@H]3CCCNC3)nnc(-c3ccc(C(F)(F)F)cc3O)c21 (stereo partly drawn) [Compound I-23] | 10 to 100
CN1CCC[C@@H](Nc2nnc(-c3c(O)cc(C4CC4)cc3F)c3cccn23)C1 [Compound I-380] | < 1
Oc1cc(Br)ccc1-c1nnc(N[C@@H]2CCCNC2)n2nccc12 [Compound I-391] | 1 to 10
CN1CCC(Nc2nnc(-c3ccc(C(F)(F)F)cc3O)c3ccncc23)CC12CC2 (stereo not drawn) [Compound I-212] | 10 to 100
Cc1ccc(O)c(-c2nnc(N[C@@H]3CCCN(C)C3)c3ccccc23)c1 [Compound I-17] | 100 to 300
CN1CCCC(Nc2nnc(-c3ccc(C(F)(F)F)cc3O)c3ccncc23)CC1 (stereo not drawn) [Compound I-263] | 1 to 10
C[C@@H](O)CNc1nnc(-c2ccc(C3CC3)cc2O)c2cccn12 [Compound I-586] | 100 to 300
Cc1cc(F)c(-c2nnc(N[C@H]3C[C@@](C)(O)C3)n3cccc23)c(OC(F)F)c1 [Compound I-465] | 100 to 300
CN(c1nnc(-c2ccc(C(F)(F)F)cc2O)c2ccncc12)[C@@H]1CCCNC1 [Compound I-292, (R)-2-(4-(Methyl(piperidin-3-yl)amino)pyrido[3,4-d]pyridazin-1-yl)-5-(trifluoromethyl)phenol] | 1 to 10
CN1CCC[C@@H](Nc2nnc(-c3cc(OC(F)(F)F)ccc3C(F)F)c3ccncc23)C1 [Compound I-320] | 1 to 10

SMILES | IC50 [nM]
Oc1cc(C(F)(F)F)ccc1-c1nnc(N[C@@H]2CCCN(CCOC(F)F)C2)c2cnccc12 [Compound I-293] | < 1
CN1CCC[C@@H](Nc2nnc(-c3ccc(F)cc3O)c3ccccc23)C1 [Compound I-16] | 1 to 10
Oc1cc(Cl)ccc1-c1nnc(N[C@H]2CCOC2)n2cncc12 [Compound I-580] | 1 to 10
CN1CCC[C@@H](N(C)c2nnc(-c3ccc(C(F)(F)F)cc3O)c3c2CCCC3)C1 [Compound I-47, 2-[4-[Methyl-[(3R)-1-methyl-3-piperidyl]amino]-5,6,7,8-tetrahydrophthalazin-1-yl]-5-(trifluoromethyl)phenol] | < 1
Cc1ccc(-c2nnc(N[C@@H]3CCCN(C)C3)n3nc(C)cc23)c(OC(F)(F)F)c1 [Compound I-396, (R)-2-Methyl-4-(4-methyl-2-(trifluoromethoxy)phenyl)-N-(1-methylpiperidin-3-yl)pyrazolo[1,5-d][1,2,4]triazin-7-amine] | 10 to 100
CN1CCC[C@@H](Nc2nnc(-c3ccc(C(F)(F)F)cc3OC(F)F)c3ccncc23)C1 [Compound I-121] | < 1
CN1CCC[C@@H](Nc2nnc(-c3ccc(C4CC4)cc3O)c3ccncc23)C1 [Compound I-89] | < 1
CN1CCC[C@@H](Nc2nnc(-c3ccc(C(F)(F)F)cc3C3=CCOC3)c3ccncc23)C1 [Compound I-145] | 1 to 10
CN1CCC[C@@H](Nc2nnc(-c3ccc(C(F)(F)F)cc3C(F)(F)F)c3cccn23)C1 [Compound I-348] | 1 to 10
CN1CCC[C@@H](Nc2nnc(-c3ccc(C(F)(F)F)cc3CO)c3ccncc23)C1 [Compound I-190] | 10 to 100
COc1ccc(-c2nnc(N[C@@H]3CCCN(C)C3)c3cnccc23)c(C(F)(F)F)c1 [Compound I-181] | 1 to 10
OCCN1CCC[C@@H](Nc2nnc(-c3ccc(C(F)(F)F)cc3O)c3cnccc23)C1 [Compound I-101] | < 1
CN1CCC[C@@H](Nc2nnc(-c3ccc(Cl)cc3C(F)F)c3cccn23)C1 [Compound I-443, 1-[4-Chloro-2-(difluoromethyl)phenyl]-N-[(3R)-1-methyl-3-piperidyl]pyrrolo[1,2-d][1,2,4]triazin-4-amine] | 1 to 10
FC(F)Oc1cc(C(F)(F)F)ccc1-c1nnc(NC[C@H]2CCCO2)n2cccc12 [Compound I-611] | 10 to 100
COc1c(C2CC2)ccc(F)c1-c1nnc(N[C@@H]2CCCN(C)C2)c2cnccc12 [Compound I-208] | 10 to 100
COc1cc(C(F)(F)F)ccc1-c1nnc(N[C@@H]2CCCN(C)C2)c2c1cnn2C [Compound I-144, 4-[2-Methoxy-4-(trifluoromethyl)phenyl]-1-methyl-N-[(3R)-1-methyl-3-piperidyl]pyrazolo[3,4-d]pyridazin-7-amine] | 1 to 10
Oc1cc(C(F)(F)F)ccc1-c1nnc(N[C@@H]2CCCN(C3CCOC3)C2)c2cnccc12 (stereo partly drawn) [Compound I-281] | < 1
CC(C)(O)CN1CCC[C@@H](Nc2nnc(-c3ccc(C(F)(F)F)cc3O)c3cccn23)C1 [Compound I-364] | 1 to 10
OCCN1CCC[C@@H](Nc2nnc(-c3ccc(C(F)(F)F)cc3O)c3ccccc23)C1 [Compound I-48, 2-[4-[[(3R)-1-(2-Hydroxyethyl)-3-piperidyl]amino]phthalazin-1-yl]-5-(trifluoromethyl)phenol] | < 1
Oc1cc(Br)ccc1-c1nnc(N[C@@H]2CCCNC2)n2cccc12 [Compound I-490, (R)-5-Bromo-2-(4-(piperidin-3-ylamino)pyrrolo[1,2-d][1,2,4]triazin-1-yl) phenol] | 1 to 10
Oc1cc(Cl)ccc1-c1nnc(N[C@@H]2CCCNC2)n2cncc12 [Compound I-435] | 1 to 10
Oc1cc(C(F)(F)F)ccc1-c1nnc(N[C@@H]2CCCNC2)c2c1CCCCC2 [Compound I-31, (R)-2-(4-(Piperidin-3-ylamino)-6,7,8,9-tetrahydro-5H-cyclohepta[d]pyridazin-1-yl)-5-(trifluoromethyl)phenol] | < 1
